We go through 49 molecules from patent US9040714B2 (MannKind Corporation, priority 2010, dated 2015).

Where two headings read alike, the source gives them in different places.

Test [1] has as its target human IRE-1α (GST-IRE-1α) (Homo sapiens (Human), UniProt O75460). Nature of the test: IRE-1α assay in vitro: cleavage of Cy5/BHQ2-labelled mini-XBP-1 mRNA stem-loop substrate. The format is biochemical. Particulars: average IC50 for inhibition of IRE-1α. The protocol:
In some embodiments IRE-la inhibitor compounds form a complex with IRE-1α. […] Other substrates also can be used to detect cleavage. See US 2007/0105123.
A fusion protein comprising glutathione S transferase (GST) and human IRE-1α (GST-IRE-1α) obtained from a 500 ml baculovirus-infected insect cell culture can be used to measure IRE-1α activity in vitro.
Five μl of a reaction mixture comprising IX reaction buffer (5× reaction buffer is 100 mM Hepes pH 7.5, 250 mM KOAc, 2.5 mM MgCl2), 3 mM DTT, and 0.4% polyethylene glycol water is added to each well of 384 well plates. Twenty-five nanoliters of a 1 mM test compound solution are added to test wells. Three μl of a […] IRE-1α preparation are added to each test well and to positive control wells (final concentration 5.82 ng/well). Negative control wells contain only reaction mixture and test compound.
After spinning the plates at 1200 rpm for 30 seconds, 3 μl of an IRE-1α human mini-XBP-1 mRNA stem-loop substrate 5′-[…]-3′ (SEQ ID NO:1), labeled with the fluorescent dye Cy5 at the 5′ end and Black Hole Quencher 2 (BH2) at the 3′ end, are added to each well of a control plate. The plates are again spun at 1200 rpm for 30 seconds. Final concentrations for the assay are: 63 nM IRE-1α substrate, 5.82 ng IRE-1α protein, and 2.5 μM test compound.
The plates are covered with lids and incubated for one hour at 30° C. The plates are then transferred to an ACQUEST™ microplate reader. Data is analyzed using data analysis software, and the percent activity of IRE-1α is calculated.
IC50 for inhibition of IRE-1α of compounds identified in Table 1 was measured as described in EXAMPLE 35.

Test [2] relates to IRE-1α-mediated XBP-1 splicing in human myeloma MM.1s cells. Nature of the test: Cellular EC50: endogenous XBP-1 splicing in myeloma cells by RT-PCR (DTT stress). In kind it is cell-based. To be noted: MM1.S, read-out: EC50_av. The method in brief:
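MM.1s myeloma cells were pretreated with compound 1.25 h, then stressed with 2 mM DTT for 45 min more (2 h total). XBP-1 was amplified by RT-PCR from total RNA with intron-flanking primers; ED50 taken at 50% spliced XBP-1s of total XBP-1.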

The mark [3] stands for this setting: average cellular EC50, XBP-1 splicing in myeloma cells.

Sequence of human IRE-1α (GST-IRE-1α) (O75460 19-977): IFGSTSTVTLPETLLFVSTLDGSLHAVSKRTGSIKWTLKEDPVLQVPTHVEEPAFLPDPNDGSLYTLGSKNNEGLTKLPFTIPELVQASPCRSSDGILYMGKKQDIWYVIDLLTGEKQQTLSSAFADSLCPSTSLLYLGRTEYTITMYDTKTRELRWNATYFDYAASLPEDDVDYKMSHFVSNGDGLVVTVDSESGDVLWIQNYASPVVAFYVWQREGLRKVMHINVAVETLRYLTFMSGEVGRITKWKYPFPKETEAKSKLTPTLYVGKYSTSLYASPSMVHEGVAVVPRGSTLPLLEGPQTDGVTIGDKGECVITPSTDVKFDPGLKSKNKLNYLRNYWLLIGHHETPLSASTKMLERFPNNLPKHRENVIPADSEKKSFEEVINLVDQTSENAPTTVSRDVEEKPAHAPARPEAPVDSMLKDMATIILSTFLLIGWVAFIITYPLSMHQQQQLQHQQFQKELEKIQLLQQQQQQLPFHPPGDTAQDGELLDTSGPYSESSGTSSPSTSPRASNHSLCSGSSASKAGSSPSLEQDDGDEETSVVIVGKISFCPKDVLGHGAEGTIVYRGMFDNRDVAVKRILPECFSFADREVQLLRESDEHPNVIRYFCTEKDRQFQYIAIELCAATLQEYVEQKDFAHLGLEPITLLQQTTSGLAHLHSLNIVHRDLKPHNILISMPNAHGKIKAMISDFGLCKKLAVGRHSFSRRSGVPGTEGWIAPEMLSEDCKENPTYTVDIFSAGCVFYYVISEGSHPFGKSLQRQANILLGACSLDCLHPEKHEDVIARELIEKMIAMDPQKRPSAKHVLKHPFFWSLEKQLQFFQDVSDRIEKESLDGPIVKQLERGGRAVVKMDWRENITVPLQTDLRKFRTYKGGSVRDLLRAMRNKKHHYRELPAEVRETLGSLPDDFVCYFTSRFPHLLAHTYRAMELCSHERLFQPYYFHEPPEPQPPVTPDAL

By IC50 is commonly meant the midpoint of a concentration-inhibition curve. Take `COc1cc(O)c(C=O)c2oc(=O)c(CC(=O)NCCN(C)C)c(C)c12` [Example 180]: the IC50 in test [1] is below 0.1 µM. Besides, the EC50 in test [2] (setting [3]) is below 10 µM.

In test [1], `Cc1c(-c2ccc(N3CCN(C)CC3)nc2)c(=O)oc2c(C=O)c(O)ccc12` [Example 14] showed an IC50 below 0.1 µM. Also, in test [2] (setting [3]), the EC50 is below 10 µM.

As to `COc1cc2c(C(C)C)cc(=O)oc2c(C=O)c1O` [Example 146], the IC50 in test [1] is below 0.1 µM. The EC50 in test [2] (setting [3]) is below 10 µM.

In test [1], `Cc1nc(N2CCc3c(ccc(O)c3C=O)C2)sc1C(=O)NCCN1CCOCC1` [Example 37] returned an IC50 below 0.1 µM. Moreover, in test [2] (setting [3]), the EC50 was above 10 µM.

In the case of `COCCOc1cc(O)c(C=O)c2oc(=O)cc(C)c12` [Example 121], the IC50 in test [1] was below 0.1 µM. Besides, the EC50 in test [2] is below 10 µM.

`CCNC(=O)CCc1c(C)c2c(OCCOC)cc(O)c(C=O)c2oc1=O` [Example 155] had an IC50 in test [1] below 1 µM. For the same molecule, the EC50 in test [2] is below 10 µM.

`COc1cc(O)c(C=O)c2oc(=O)c(CC(=O)NCCN3CCOCC3)c(C)c12` [Example 179]: the IC50 in test [1] is below 1 µM. The EC50 in test [2] (setting [3]) is below 10 µM.

In turn, `COCCOCCc1c(C)c2cc(OC)c(O)c(C=O)c2oc1=O` [Example 127] gave an IC50 in test [1] below 0.1 µM. Moreover, in test [2] (setting [3]), the EC50 is below 10 µM.

On to `O=Cc1c(O)ccc2nc(-c3cccc(C(=O)NCCN4CCOCC4)c3)ccc12` [Example 46], for which the IC50 in test [1] was below 0.1 µM. Moreover, in test [2], the EC50 was below 10 µM.

As to `COc1cc(O)c(C=O)c2oc(=O)c(CCC(=O)N3CCN(C)CC3)c(C)c12` [Example 193], the IC50 in test [1] is below 0.1 µM. The EC50 in test [2] (setting [3]) was below 10 µM.

`Cc1nc(-c2cc3ccc(O)c(C=O)c3oc2=O)sc1C(=O)NCCN1CCOCC1` [Example 109] returned an IC50 in test [1] below 0.1 µM. Besides, the EC50 in test [2] (setting [3]) is below 10 µM.

The molecule `COCCOc1cc2c(C)c(CCC(=O)NCCN3CCOCC3)c(=O)oc2c(C=O)c1O` [Example 186] displayed an IC50 in test [1] below 1 µM. For the same molecule, the EC50 in test [2] (setting [3]) was above 10 µM.

`COCCNC(=O)CCc1c(C)c2c(OC)cc(O)c(C=O)c2oc1=O` [Example 194] came in with an IC50 in test [1] below 0.1 µM. Besides, the EC50 in test [2] (setting [3]) is below 10 µM.

In turn, `COCCOc1cc2c(C)c(CCC(=O)N3CCN(C)CC3)c(=O)oc2c(C=O)c1O` [Example 182] showed an IC50 in test [1] below 0.1 µM. Besides, in test [2] (setting [3]), the EC50 was below 10 µM.

The molecule `CN1CCN(c2ncc(C(=O)N3CCc4c(ccc(O)c4C=O)C3)s2)CC1` [Example 38] registered an IC50 in test [1] below 0.1 µM. Besides, the EC50 in test [2] (setting [3]) is above 10 µM.

In test [1], `COCCOc1cc(O)c(C=O)c2oc(=O)c(CCC(=O)NCCN3CCOCC3)c(C)c12` [Example 156] gave an IC50 below 1 µM. In addition, in test [2] (setting [3]), the EC50 was above 10 µM.

In test [1], `Cc1c(CCC(=O)NCCN2CCOCC2)c(=O)oc2c(C=O)c(O)ccc12` [Example 201] came in with an IC50 below 0.1 µM. In addition, in test [2] (setting [3]), the EC50 is below 10 µM.

Turning to `O=Cc1c(O)ccc2nc(-c3cccc(C(=O)O)c3)[nH]c12` [Example 64], in test [1], the IC50 is below 0.1 µM. The EC50 in test [2] (setting [3]) was above 10 µM.

In turn, `COCc1c(CCC(=O)NCCN2CCOCC2)c(=O)oc2c(C=O)c(O)c(OC)cc12` [Example 140] returned an IC50 in test [1] below 1 µM. Moreover, in test [2] (setting [3]), the EC50 is above 10 µM.

`O=Cc1c(O)ccc2nc(-c3ccc(C(=O)N4CCOCC4)cc3)ccc12` [Example 44] registered an IC50 in test [1] below 1 µM. In addition, in test [2] (setting [3]), the EC50 was below 10 µM.

Molecule `COc1cc(O)c(C=O)c2oc(=O)c(CC(=O)N3CCOCC3)c(C)c12` [Example 177] displayed an IC50 in test [1] below 0.1 µM. Moreover, the EC50 in test [2] (setting [3]) was below 10 µM.

For the molecule `COc1cc2c(C)c(CC(=O)NCCO)c(=O)oc2c(C=O)c1O` [Example 148], in test [1], the IC50 is below 0.1 µM. In addition, the EC50 in test [2] (setting [3]) was above 10 µM.

For the molecule `O=Cc1c(O)ccc2c(=O)c(-c3cnn(-c4ccccc4)c3)coc12` [Example 40], in test [1], the IC50 was below 1 µM. The EC50 in test [2] (setting [3]) is above 10 µM.

Regarding `Cc1c(-c2ccc(C(=O)N(C)C)cc2)c(=O)oc2c(C=O)c(O)ccc12` [Example 17], the IC50 in test [1] is below 0.1 µM. Besides, the EC50 in test [2] (setting [3]) is below 10 µM.

In turn, `COCCNC(=O)c1ccc(-c2c(C)c3cc(Cl)c(O)c(C=O)c3oc2=O)cc1` [Example 150] returned an IC50 in test [1] below 1 µM. For the same molecule, in test [2], the EC50 is above 10 µM.

Regarding `COCCOc1cc(O)c(C=O)c2oc(=O)c(CCC(=O)N3CCN(C)CC3)c(C)c12` [Example 154], the IC50 in test [1] was below 0.1 µM. In addition, the EC50 in test [2] is below 10 µM.

Consider `CCNC(=O)CCc1c(C)c2cc(OC)c(O)c(C=O)c2oc1=O` [Example 174], for which, in test [1], the IC50 is below 0.1 µM. Moreover, in test [2] (setting [3]), the EC50 was below 10 µM.

In test [1], `COc1cc(O)c(C=O)c2oc(=O)c(CCC(=O)N3CCOCC3)c(C)c12` [Example 192] showed an IC50 below 1 µM. In test [2] (setting [3]), the EC50 is below 10 µM.

For `Cc1cc(=O)oc2c(C=O)c(O)c(Cl)cc12` [Example 22], the IC50 in test [1] was below 0.1 µM. Moreover, the EC50 in test [2] (setting [3]) was below 10 µM.

In test [1], `COCOCCNC(=O)Cc1c(C)c2cc(OC)c(O)c(C=O)c2oc1=O` [Example 149] had an IC50 below 1 µM. Besides, the EC50 in test [2] (setting [3]) was below 10 µM.

The molecule `COCCNC(=O)CCc1c(C)c2cc(OCCOC)c(O)c(C=O)c2oc1=O` [Example 184] registered an IC50 in test [1] below 0.1 µM. Further, the EC50 in test [2] (setting [3]) is below 10 µM.

In turn, `COCc1c(C)c(=O)oc2c(C=O)c(O)ccc12` [Example 137] yielded an IC50 in test [1] below 0.1 µM. The EC50 in test [2] (setting [3]) is below 10 µM.

`COCCNC(=O)Cc1c(C)c2cc(OC)c(O)c(C=O)c2oc1=O` [Example 166]: the IC50 in test [1] is below 1 µM. Moreover, the EC50 in test [2] (setting [3]) is below 10 µM.

Turning to `CCNC(=O)Cc1c(C)c2cc(OC)c(O)c(C=O)c2oc1=O` [Example 169], the IC50 in test [1] was below 0.1 µM. The EC50 in test [2] (setting [3]) is below 10 µM.

In test [1], `CCc1cc2c(C)c(-c3ccc(C(=O)N4CCOCC4)cc3)c(=O)oc2c(C=O)c1O` [Example 119] gave an IC50 below 1 µM. The EC50 in test [2] was above 10 µM.

`COc1cc2c(CN(C)C)c(C)c(=O)oc2c(C=O)c1O` [Example 133]: the IC50 in test [1] is below 0.1 µM. Further, the EC50 in test [2] (setting [3]) was below 10 µM.

`Cc1c(-c2ccc(C(=O)N3CCOCC3)cc2)c(=O)oc2c(C=O)c(O)ccc12` [Example 12] displayed an IC50 in test [1] below 0.1 µM. The EC50 in test [2] (setting [3]) is below 10 µM.

Consider `[2H]C(=O)c1c(O)ccc2c(C)c(-c3ccc(C(=O)NCCN4CCOCC4)cc3)c(=O)oc12` [Example 116], for which, in test [1], the IC50 was below 0.1 µM. In addition, the EC50 in test [2] (setting [3]) is below 10 µM.

In turn, `Cc1c(CC(=O)N2CCOCC2)c(=O)oc2c(C=O)c(O)ccc12` [Example 129] gave an IC50 in test [1] below 0.1 µM. In addition, in test [2] (setting [3]), the EC50 is below 10 µM.

In test [1], `COCCOc1cc2c(C)c(CCC(=O)NCCN(C)C)c(=O)oc2c(C=O)c1O` [Example 185] showed an IC50 below 0.1 µM. Also, the EC50 in test [2] was above 10 µM.

`CC(C)c1cc(=O)oc2c(C=O)c(O)ccc12` [Example 5] gave an IC50 in test [1] below 0.1 µM. In addition, the EC50 in test [2] is below 10 µM.

With `COc1cc(O)c(C=O)c2oc(=O)cc(C)c12` [Example 120], in test [1], the IC50 is below 1 µM. Also, the EC50 in test [2] was below 10 µM.

`Cc1c(-c2cccc(C(=O)N(C)C)c2)c(=O)oc2c(C=O)c(O)ccc12` [Example 20] displayed an IC50 in test [1] below 1 µM. In test [2], the EC50 is above 10 µM.

`CN1CCN(C(=O)c2ccc(-c3ccc4c(C=O)c(O)ccc4n3)cc2)CC1` [Example 41] returned an IC50 in test [1] below 1 µM. The EC50 in test [2] (setting [3]) is below 10 µM.

On to `CN1CCN(C(=O)c2cnc(-c3cc4ccc(O)c(C=O)c4oc3=O)s2)CC1` [Example 107], for which, in test [1], the IC50 was below 0.1 µM. In addition, the EC50 in test [2] (setting [3]) is below 10 µM.

As for `COc1cc2c(C)c(-c3ccc(C(=O)NCCN4CCOCC4)s3)c(=O)oc2c(C=O)c1O` [Example 143], the IC50 in test [1] is below 1 µM. The EC50 in test [2] (setting [3]) was below 10 µM.

In test [1], `Cc1c(-c2cccc(C(=O)N3CCN(C)CC3)c2)c(=O)oc2c(C=O)c(O)ccc12` [Example 10] displayed an IC50 below 0.1 µM. In test [2], the EC50 is below 10 µM.

In test [1], `Cc1c(-c2cccc(C(=O)NCCN3CCOCC3)c2)c(=O)oc2c(C=O)c(O)ccc12` [Example 11] had an IC50 below 0.1 µM. Moreover, in test [2] (setting [3]), the EC50 is below 10 µM.

Turning to `Cc1c(-c2ccc(C(=O)NCCN3CCOCC3)cc2)c(=O)oc2c(C=O)c(O)ccc12` [Example 3], in test [1], the IC50 is below 0.1 µM. Besides, the EC50 in test [2] (setting [3]) is below 10 µM.
